Drawing on PubChem BioAssay (NCI), this text covers TGI and GI50 for 9 compounds.

By TGI is commonly meant the concentration at which net growth stops. In general, GI50 refers to the concentration at which growth is held to half of that of the control.

Among the test systems are SW-620 colon; RPMI-8226 leukemia; K-562 leukemia; OVCAR-4 ovarian; HCT-15 colon; NCI-H460 lung; SK-OV-3 ovarian; SK-MEL-28 melanoma; UACC-62 melanoma; EKVX NSCLC.
Common to all, as to assay: DTP human tumour cell line panel, 48 h

Where “and” joins values, the source holds several entries; their conditions need not be identical. Identical values can stand only once.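 Results reflect a 48-hour exposure of cells in 96-well plates to compound at five concentrations. GI50 marks 50% less growth. TGI is the concentration that stops growth completely.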

In the case of `O=c1[nH]c2c3ccccc3ccc2c2cc3c(cc12)OCO3`, the TGI in the test with SW-620 colon, with RPMI-8226 leukemia, in the test on K-562 leukemia, in the test on OVCAR-4 ovarian, in the test with HCT-15 colon and in the test on NCI-H460 lung was greater than 100 µM in each case. The concentration for total growth inhibition (TGI) with SK-OV-3 ovarian, with SK-MEL-28 melanoma, with UACC-62 melanoma and with EKVX NSCLC was greater than 100 µM each time.

Turning to `COC(=O)c1c2c(c(C)[n+]([O-])c1C)C(=O)C=C(NCc1ccc(OC)cc1)C2=O`, the GI50 in the test on SW-620 colon was 1.08 µM; in the test with RPMI-8226 leukemia, 2.03 µM; in the test on K-562 leukemia, 2.68 µM; in the test on OVCAR-4 ovarian it was 0.655 µM; in the test with HCT-15 colon, 0.962 µM; with NCI-H460 lung it was 1.29 µM. In addition, the GI50 was 3.08 µM in the test with SK-OV-3 ovarian, 3.2 µM in the test on SK-MEL-28 melanoma, 0.85 µM with UACC-62 melanoma and 1.92 µM with EKVX NSCLC. For the same compound, the TGI in the test with SW-620 colon worked out at 4.08 µM; with RPMI-8226 leukemia, 9.26 µM; in the test on K-562 leukemia, 15.3 µM; in the test with OVCAR-4 ovarian, 1.79 µM; in the test with HCT-15 colon it was 4.19 µM; in the test with NCI-H460 lung it was 4.69 µM. Further, the total growth inhibition concentration (TGI) was determined as 9.3 µM in the test on SK-OV-3 ovarian, 10 µM with SK-MEL-28 melanoma, 2.51 µM with UACC-62 melanoma and 5.24 µM with EKVX NSCLC.

Regarding `CC(=O)N/C(=C\c1cccc([N+](=O)[O-])c1)c1nc2c3c(ccc2[nH]1)C(=O)c1ccccc1C3=O`, the TGI with SW-620 colon, with RPMI-8226 leukemia, with K-562 leukemia, in the test on OVCAR-4 ovarian, in the test with HCT-15 colon and in the test with NCI-H460 lung was greater than 100 µM in each case. Further, the concentration for total growth inhibition (TGI) in the test on SK-OV-3 ovarian, in the test on SK-MEL-28 melanoma, in the test with UACC-62 melanoma and with EKVX NSCLC was greater than 100 µM throughout.

In the case of `CCN(CC)CCNC(=O)c1nn(C)c(=S)[nH]c1=S`, the TGI in the test on SW-620 colon, with RPMI-8226 leukemia, in the test on K-562 leukemia, with OVCAR-4 ovarian, in the test on HCT-15 colon and in the test with NCI-H460 lung was greater than 100 µM in each case. Further, the TGI with SK-OV-3 ovarian, in the test with SK-MEL-28 melanoma, in the test on UACC-62 melanoma and in the test with EKVX NSCLC was greater than 100 µM each time.

Take `CC/C(=C(/CC)c1ccc(O)cc1)c1ccc([O-])cc1.CC/C(=C(/CC)c1ccc(O)cc1)c1ccc([O-])cc1.O=C([CH-]C(=O)c1ccccc1)c1ccccc1.O=C([CH-]C(=O)c1ccccc1)c1ccccc1.[Ti+4]`: the GI50 was 6.35 µM with SW-620 colon; 30.5 µM in the test with RPMI-8226 leukemia; 3.51 µM in the test with K-562 leukemia; 24.8 µM in the test on OVCAR-4 ovarian; 6.8 µM in the test with HCT-15 colon; 13.1 µM in the test on NCI-H460 lung. Besides, the GI50 with SK-OV-3 ovarian was 19.8 µM; in the test on SK-MEL-28 melanoma, 15.8 µM; in the test with UACC-62 melanoma it was 6.61 µM; in the test with EKVX NSCLC, 17.6 µM. The TGI was 19.1 µM in the test with SW-620 colon; greater than 100 µM in the test on RPMI-8226 leukemia; greater than 100 µM in the test with K-562 leukemia; greater than 100 µM in the test on OVCAR-4 ovarian; 32.3 µM in the test with HCT-15 colon; 25.8 µM in the test with NCI-H460 lung. The concentration for total growth inhibition (TGI) was 52.2 µM in the test on SK-OV-3 ovarian, greater than 100 µM with SK-MEL-28 melanoma, 25.5 µM with UACC-62 melanoma and 46 µM with EKVX NSCLC.

With `COc1ccc(-c2nc3ncccn3c2/C=C/C(=O)c2cc(OC)c(OC)c(OC)c2)cc1`, the GI50 with SW-620 colon was 1.75 µM; in the test on RPMI-8226 leukemia it was 2.21 µM; in the test on K-562 leukemia, 2.63 µM; with OVCAR-4 ovarian, 2.91 µM; in the test with HCT-15 colon, 1.38 µM; in the test on NCI-H460 lung, 1.43 µM. For the same compound, the GI50 is 2.5 µM in the test on SK-OV-3 ovarian, 1.65 µM with SK-MEL-28 melanoma, 1.82 µM in the test on UACC-62 melanoma and 1.61 µM with EKVX NSCLC. For the same compound, the TGI with SW-620 colon is 3.94 µM; in the test with RPMI-8226 leukemia, greater than 100 µM; in the test with K-562 leukemia, greater than 100 µM; in the test on OVCAR-4 ovarian, 14.3 µM; in the test with HCT-15 colon, 3.94 µM; with NCI-H460 lung it was 2.74 µM. The TGI was found to be 7.01 µM with SK-OV-3 ovarian, 3.27 µM in the test on SK-MEL-28 melanoma, 3.42 µM in the test on UACC-62 melanoma and 6.06 µM in the test with EKVX NSCLC.

`COc1c(Cl)c2c(c(OC)c1OC)-c1ccc(SC)c(=O)cc1[C@@H](NC(=O)OCC(F)(F)F)CC2`: the GI50 is less than 0.01 µM in the test on SW-620 colon; less than 0.01 µM in the test with RPMI-8226 leukemia; less than 0.01 µM in the test on K-562 leukemia; 0.0889 µM with OVCAR-4 ovarian; less than 0.01 µM in the test on HCT-15 colon; less than 0.01 µM with NCI-H460 lung. In addition, the concentration for 50% growth inhibition (GI50) was less than 0.01 µM in the test on SK-OV-3 ovarian, 5.99 µM in the test on SK-MEL-28 melanoma, less than 0.01 µM in the test with UACC-62 melanoma and less than 0.01 µM in the test on EKVX NSCLC. The concentration for total growth inhibition (TGI) was greater than 100 µM in the test on SW-620 colon; 8.21 µM with RPMI-8226 leukemia; greater than 100 µM in the test with K-562 leukemia; greater than 100 µM in the test with OVCAR-4 ovarian; greater than 61.3 µM with HCT-15 colon; 10.2 µM in the test on NCI-H460 lung. Moreover, the TGI in the test with SK-OV-3 ovarian was greater than 100 µM; in the test on SK-MEL-28 melanoma it was greater than 100 µM; with UACC-62 melanoma, 21.2 µM; in the test on EKVX NSCLC, greater than 100 µM.

With `O=[N+]([O-])c1ccc(N=Nc2c(O)ccc3ccccc23)cc1`, the concentration for total growth inhibition (TGI) in the test with SW-620 colon is greater than 100 µM; in the test with RPMI-8226 leukemia it was greater than 100 µM; with K-562 leukemia it was greater than 100 µM; with OVCAR-4 ovarian, 65.7 µM and > 100 µM; in the test with HCT-15 colon, greater than 100 µM; in the test on NCI-H460 lung it was greater than 100 µM. Besides, the TGI with SK-OV-3 ovarian, in the test with SK-MEL-28 melanoma, in the test on UACC-62 melanoma and with EKVX NSCLC was greater than 100 µM each time. In addition, the GI50 in the test with OVCAR-4 ovarian was 24.3 µM and > 100 µM; with SK-OV-3 ovarian, 20.2 µM and > 100 µM; with UACC-62 melanoma, 18.3 µM and > 100 µM; in the test on EKVX NSCLC, 28 µM and > 100 µM.

For `O=C1c2ccccc2C2(O)NC(=S)N(c3ccccc3)C12O` (centres undefined), the total growth inhibition concentration (TGI) in the test on SW-620 colon, in the test with RPMI-8226 leukemia, in the test on K-562 leukemia, in the test on OVCAR-4 ovarian, in the test on HCT-15 colon and in the test on NCI-H460 lung was greater than 100 µM in each case. The concentration for total growth inhibition (TGI) with SK-OV-3 ovarian, in the test with SK-MEL-28 melanoma, with UACC-62 melanoma and with EKVX NSCLC was greater than 100 µM each time.
